Columns and labels:
[1] = system: BAE cells; experiment: Accumulation of arsenical in BAE cells (cytosolic arsenic by inductively coupled plasma spectrometry); format: cell-based, bovine; details: 50 μM
Protocol: BAE cells were seeded at a density of 1.5×10^6 cells in Petri dishes and allowed to adhere overnight. Cells were incubated with 50 μM (S)-Penicillamine-arsenoxide at discrete times for up to 2 h at 37° C. and then washed three times with ice-cold PBS. The washed cells were lysed in 1 mL of 70% w/w nitric acid. Petri dishes were then washed twice with 1 mL of PBS and kept at 4° C. until use. Samples were diluted 10-fold and analysed for arsenic atoms using an Elan 6100 Inductively Coupled Plasma Spectrometer (Perkin Elmer Sciex Instruments, Shelton, Conn.).

[2] = system: HT1080 cells (fibrosarcoma); experiment: HT1080 cell proliferation assay (MTT, 72 h); format: cell-based; details: HT1080, human fibrosarcoma; read-out: IC50 for proliferation arrest
Protocol: (§1) BAE cells were from Cell Applications, San Diego, Calif. and BxPC-3, HT1080, LLC, PANC-1, MCF-7, HCT116 and K562 cells were from ATCC, Bethesda, Md. NB4 and MDCK2 cells were from Shane Supple (Kanematsu Laboratories, Royal Prince Alfred Hospital, Sydney, Australia) and P. Borst (The Netherlands Cancer Institute, Amsterdam, The Netherlands). BAE, HT1080, Panc-1, MCF-7, HCT116, MDCK2 and LLC cells were cultured in DMEM. NB4, K562 and BxPC-3 cells were cultured in RPMI medium. The cells were supplemented with 10% foetal calf serum (FBS), 2 mM L-glutamine, and 1 U·mL-1 penicillin/streptomycin. Cell culture plasticware was from Techno Plastic Products (Trasadingen, Switzerland). All other cell culture reagents were from Gibco (Gaithersburg, Md.).
(§2) Adherent cells were allowed to adhere overnight.

[3] = system: K562 cells (chronic myelogenous leukaemia); experiment: K562 cell proliferation assay (MTT, 72 h); format: cell-based; details: K562, human chronic myelogenous leukaemia; read-out: IC50 for proliferation arrest
Protocol: as §1, §2

[4] = system: MDCK2 cells (kidney epithelial); experiment: MDCK2 cell proliferation assay (MTT, 72 h); format: cell-based, dog
Protocol: as §1, §2

[5] = system: MCF-7 cells (mammary carcinoma); experiment: MCF-7 cell proliferation assay (MTT, 72 h); format: cell-based; details: MCF-7, human mammary carcinoma; read-out: IC50 for proliferation arrest
Protocol: as §1, §2

[6] = system: BAE cells; experiment: BAE proliferation with glutathione depletion by BSO; format: cell-based, bovine; details: BAE cells co-treated with BSO, 72 h
Protocol: FIG. 12. Depletion of cellular glutathione increases (S)-Penicillamine-arsenoxide anti-proliferative activity. BAE cells were co-treated with (S)-Penicillamine-arsenoxide and the indicated concentrations of BSO for 72 h and the IC50 for proliferation arrest was calculated.
Treatment of BAE cells with glutathione reduced GSAO inhibition of BAE cell proliferation, while blocking de novo synthesis of glutathione with buthionine sulfoximine (BSO), an inhibitor of the γ-glutamyl cysteine synthase, enhanced the proliferation arrest by almost 100-fold (Dilda et al., 2005b).

[7] = system: MEF3.8 cells over-expressing BCRP; details: MEF/BCRP; 96 h; relative to IC50 of non-transfected parental cells
Protocol: (§3) Transfectants of the Madin-Darby canine kidney II (MDCKII) polarised epithelial cell line, over-expressing multidrug resistance-associated proteins (MRP) 1, 2 or 3, have been described (Evers et al., 2000; Kool et al., 1999), as have the MEF/MDR1 clone H4 over-expressing human MDR1 or BCRP (Dilda et al., 2005b). Cells were grown and maintained as adherent monolayers in DMEM containing 10% calf serum (Cosmic™, Hyclone, Tauranga, New Zealand), 100 μg·mL^−1 penicillin and 60 μg·mL^−1 streptomycin. Cytotoxicity assays were performed as described previously (Allen et al., 1999).
(§4) Mammalian cells over-expressing MRP1, 2, 3 or 6, or MDR1 or BCRP were tested for resistance to (S)-Penicillamine-arsenoxide. MRP1, MRP2 or MRP3 was over-expressed in the canine kidney epithelial MDCKII cell line, while MRP6, MDR1 or BCRP was over-expressed in the murine embryo fibroblast MEF3.8 line. Cells were exposed to the indicated concentrations of (S)-Penicillamine-arsenoxide for 96 h and the number of viable cells measured and expressed relative to the number of untreated cells. Resistance factor is calculated relative to the (S)-Penicillamine arsenoxide IC50 for proliferation arrest of non-transfected parental cells.

[8] = system: MDCKII cells over-expressing MRP1; details: MD/MRP1; 96 h; relative to IC50 of non-transfected parental cells
Protocol: as §3, §4

[9] = system: MEF3.8 cells over-expressing MDR1; details: MEF/MDR1; 96 h; relative to IC50 of non-transfected parental cells
Protocol: as §3, §4

[10] = system: MDCKII cells over-expressing MRP2; details: MD/MRP2; 96 h; relative to IC50 of non-transfected parental cells
Protocol: as §3, §4

[11] = system: MEF3.8 cells over-expressing MRP6; details: MEF/MRP6; 96 h; relative to IC50 of non-transfected parental cells
Protocol: as §3, §4

[12] = system: MDCKII cells over-expressing MRP3; details: MD/MRP3; 96 h; relative to IC50 of non-transfected parental cells
Protocol: as §3, §4

[13] = system: BxPC-3 cells (pancreatic carcinoma); experiment: BxPC-3 cell proliferation assay (MTT, 72 h); format: cell-based; details: BxPC-3, human pancreatic carcinoma; read-out: IC50 for proliferation arrest
Protocol: as §1, §2

[14] = system: HCT1116 cells (colorectal carcinoma); experiment: HCT116 cell proliferation assay (MTT, 72 h); format: cell-based; details: HCT1116, human colorectal carcinoma; read-out: IC50 for proliferation arrest
Protocol: as §1, §2

[15] = system: BAE cells; experiment: BAE cell viability / cytotoxicity (propidium iodide flow cytometry); format: cell-based, bovine; details: read-out: IC50 for loss of viability
Description: as §2

Structure (SMILES): CC(C)(SCC(=O)Nc1ccc([As](O)O)cc1)[C@@H](N)C(=O)O [(S)-Penicillamine-arsenoxide, 4-(N—(S-penicillaminylacetyl)amino)phenylarsinous acid]
- initial rate of accumulation [1]: 69 pmol per 10^6 cells per min
- IC50 [2]: 4 µM
- IC50 [3]: 1.4 µM
- sensitivity of BAE cells relative to kidney epithelial cells ([4]; BAE vs MDCK2): 5.6 fold
- IC50 ([4]; MDCK2, dog kidney epithelial, read-out: IC50 for proliferation arrest): 2.4 µM
- IC50 [5]: 9 µM
- enhancement of IC50 for proliferation arrest by BSO [6]: approximately 25 fold
- Resistance Factor [7]: 1.1
- Resistance Factor [8]: 3.7
- Resistance Factor [9]: 1.2
- Resistance Factor [10]: 4.6
- Resistance Factor [11]: 1.3
- Resistance Factor [12]: 0.8
- IC50 [13]: 13 µM
- IC50 [14]: 6 µM
- IC50 [15]: 3.5 µM
